Measured values: US20100234315A1, “COMPOSITIONS AND METHODS FOR TREATING PSYCHIATRIC AND […]” (priority 2009, published 2010)

Assays:
[1] = tested on: spontaneously hypertensive rats (SHR); test: Open-field locomotor activity (beam breaks, rearing) in SHR rats; type: in vivo, rat
Protocol: (§1) The effects of Protoveratrine B (PVB) on locomotor activity were determined using an open-field apparatus (High Density Cage Rack System; Kent Scientific Corporation). Adult spontaneously hypertensive rats (SHR) and adult Wistar Kyoto rats (WKY) were purchased from Charles River Laboratories. […] Sessions lasted 30-minutes and were separated by at least one day to diminish the likelihood of habituation to the apparatus. Three doses of PVB were investigated based upon the blood-pressure phase of the study: 0.01, 0.02 & 0.04 mg/kg.
(§2) The number of beam breaks was averaged across subjects and into 30-s bins. The upper panel represents the WKY control rats (N=8); the bottom panel represents the SHR rats (N=8). The different plots represent the baseline and different doses of PVB. Several details can be gleaned from the data. […] Second, activity levels in the SHRs appear to drop off precipitously throughout the session and eventually converge with the activity levels seen in the WKYs.
(§3) To better comprehend the effects of dose on locomotor activity, a dose-response graph was constructed for each rat strain. To construct these graphs, the number of beam breaks that occurred in the first thirty bins (first 15 min) of all rats within a strain was averaged and plotted as a function of dose. The resulting graphs, shown in FIG. 2, represent the effects of PVB on activity within the first 15 minutes post injection.
(§4) Another measure of activity level is rearing (measured by beam breaks of an infrared plane approximately 5″ above the floor of the chamber). Rearing data were analyzed in the same way as the horizontal beam breaks. The results are illustrated in FIG. 3. […] Unlike the horizontal activity, rearing activity in SHRs was decreased by the 0.01 mg/kg dose.

Wistar Kyoto rats (WKY) = test: Open-field locomotor activity (beam breaks, rearing) in WKY rats; type: in vivo, rat
Protocol: as §1, §2, §3, §4

CC[C@@H](C)C(=O)O[C@H]1[C@H](O)[C@H]2[C@@H](CN3C[C@@H](C)CC[C@H]3[C@@]2(C)O)[C@@H]2C[C@]34O[C@]5(O)[C@@H](OC(=O)[C@](C)(O)[C@@H](C)O)CC[C@@]3(C)[C@@H]5[C@@H](OC(C)=O)[C@@H](OC(C)=O)[C@H]4[C@@]21O (stereo in doubt) [PVB, Protoveratrine B]
activity level (beam breaks) vs baseline ([1]; 0.01 mg/kg i.p., FIG. 1): did not affect activity
rearing activity at lowest dose ([1]; 0.01 mg/kg i.p., FIG. 3): decreased
activity level, largest dose compared with lowest dose ([1]; 0.04 mg/kg vs 0.01 mg/kg i.p., FIG. 1): greater decrease in activity
mean rearing, first 30 bins ([1]; 0.01-0.04 mg/kg i.p., FIG. 3): reduced rearing
mean number of beam breaks, first thirty bins (first 15 min) ([1]; dose-response 0.01-0.04 mg/kg i.p., FIG. 2): reduced the mean number of beam breaks
average activity level (number of beam breaks) as a function of time ([1]; i.p., 0.01-0.04 mg/kg, first half of 30-min session, FIG. 1): decreased activity levels
mean number of beam breaks, first 15 min, lowest dose ([1]; lowest dose (0.01 mg/kg) i.p., FIG. 2): no activity-decreasing effect
relative potency between strains (Wistar Kyoto rats (WKY); WKY vs SHR, from dose-response functions, FIG. 2): slightly more potent in WKY than in SHR rats
mean number of beam breaks, first 15 min, largest dose, WKY compared with SHR (Wistar Kyoto rats (WKY); WKY vs SHR, largest dose (0.04 mg/kg) i.p., FIG. 2): greater reduction in activity levels
activity level (beam breaks) vs baseline (Wistar Kyoto rats (WKY); WKY, 0.01 mg/kg i.p., FIG. 1): reduced activity from baseline
activity level, largest dose compared with lowest dose (Wistar Kyoto rats (WKY); WKY, 0.04 mg/kg vs 0.01 mg/kg i.p., FIG. 1): greater decrease in activity
mean rearing, first 30 bins (Wistar Kyoto rats (WKY); WKY, 0.01-0.04 mg/kg i.p., FIG. 3): reduced rearing
mean number of beam breaks, first thirty bins (first 15 min) (Wistar Kyoto rats (WKY); WKY, dose-response 0.01-0.04 mg/kg i.p., FIG. 2): reduced the mean number of beam breaks
average activity level (number of beam breaks) as a function of time (Wistar Kyoto rats (WKY); WKY, i.p., 0.01-0.04 mg/kg, first half of 30-min session, FIG. 1): decreased activity levels
mean number of beam breaks, first 15 min, lowest dose (Wistar Kyoto rats (WKY); WKY, lowest dose (0.01 mg/kg) i.p., FIG. 2): affected by the lowest dose
